Results on 15 compounds are retold here after patent publication US20240409585A1, “MACROCYCLIC IMMUNOMODULATORS” (priority 2021, published 2024).

Broadly, the IC50 is the concentration at which inhibition is half-maximal.

SMILES strings stand for the structures. Bridge positions count the residues as written; N and C are the ends. Square brackets hold non-standard residues; d marks the D form. Peptide text beside a SMILES is read from it. * marks the point of attachment. ξ: configuration not given here. Phe(4-CONH2) = NC(=O)c1ccc(C[C@H](N)C(=O)O)cc1; Phe(4-COOH) = N[C@@H](Cc1ccc(C(=O)O)cc1)C(=O)O; Bip = N[C@@H](Cc1ccc(-c2ccccc2)cc1)C(=O)O; Phe(3-Cl) = N[C@@H](Cc1cccc(Cl)c1)C(=O)O; Phe(3-Me) = Cc1cccc(C[C@H](N)C(=O)O)c1; Val(3-OH) = CC(C)(O)[C@H](N)C(=O)O; 2Pal = N[C@@H](Cc1ccccn1)C(=O)O; 4Pal = N[C@@H](Cc1ccncc1)C(=O)O; d3Pal = N[C@H](Cc1cccnc1)C(=O)O; Cha = N[C@@H](CC1CCCCC1)C(=O)O; Cit = NC(=O)NCCC[C@H](N)C(=O)O; Ile(3ξ) = CCC(C)[C@H](N)C(=O)O; Thr(3ξ) = CC(O)[C@H](N)C(=O)O; NMeS = CN[C@@H](CO)C(=O)O; Pip = O=C(O)[C@@H]1CCCCN1; Carboxymethyl = O=C(O)C*; NMeA = CN[C@@H](C)C(=O)O; Dab = NCC[C@H](N)C(=O)O; Dap = NC[C@H](N)C(=O)O

The target of the assay is T1, PE-labeled human PD-L1-Ig binding to Jurkat cell line over-expressing human PD-1 (Jurkat-PD-1) (Homo sapiens, UniProt Q15116).
T1 construct: expressed in transfected cells; host or cells: Jurkat
T1 sequence (Q15116 25-288): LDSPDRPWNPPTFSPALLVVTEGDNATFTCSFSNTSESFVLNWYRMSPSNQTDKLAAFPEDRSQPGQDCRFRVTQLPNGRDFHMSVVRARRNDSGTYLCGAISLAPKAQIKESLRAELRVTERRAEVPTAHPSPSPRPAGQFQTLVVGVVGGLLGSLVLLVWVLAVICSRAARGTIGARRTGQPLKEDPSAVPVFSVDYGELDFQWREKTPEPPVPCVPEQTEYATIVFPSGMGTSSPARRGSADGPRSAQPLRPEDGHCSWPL
The assay is described as follows: Jurkat-PD-1 Cell Binding High-Content Screening Assay (CBA): Method 1. The following applies: Jurkat-hPD-1 cells, PE-labeled PD-L1-Ig 20 nM final; read-out: Jurkat HPDL1 PD1 IC50 (uM) (Method 1).
With `CC(C)C[C@@H]1NC(=O)[C@H](CCCNC(=N)N)NC(=O)[C@@H](Cc2ccccc2)NC(=O)[C@H](C)N(C)C(=O)[C@H](CCCNC(=N)N)NC(=O)[C@H](Cc2ccc(-c3ccccc3)cc2)NC(=O)[C@H](C(C)C)NC(=O)[C@H](Cc2c[nH]c3ccccc23)NC(=O)[C@H](CC(=O)O)NC(=O)[C@H](Cc2ccc(O)cc2)NC(=O)[C@H](Cc2cnc[nH]2)NC(=O)CSC[C@@H](C(=O)N[C@@H](C)C(N)=O)NC(=O)[C@H](CO)NC(=O)[C@H](C(C)C)NC1=O` [Compound 1044] ({CH2CO}-HYDWV[Bip]R[NMeA][dF]RLVSCA-NH2; thioether N-14), the IC50 was 0.04 µM.

With `CC(C)C[C@@H]1NC(=O)[C@H](CCN)NC(=O)[C@@H](CC(C)C)NC(=O)[C@H](CO)N(C)C(=O)[C@H](C(C)C)NC(=O)[C@H](Cc2ccc(-c3ccccc3)cc2)NC(=O)[C@H](C(C)C)NC(=O)[C@H](Cc2c[nH]c3ccccc23)NC(=O)[C@H](CC(=O)O)NC(=O)[C@H](Cc2ccc(O)cc2)NC(=O)[C@H](CC(N)=O)NC(=O)CSC[C@@H](C(=O)N[C@@H](C)C(N)=O)NC(=O)[C@H]([C@@H](C)O)NC(=O)[C@H](C(C)C)NC1=O` [Compound 1370] ({CH2CO}-NYDWV[Bip]V[NMeS][dL][Dab]LVTCA-NH2; thioether N-14), the IC50 amounted to 0.01 µM.

For the compound `Cc1cccc(C[C@@H]2NC(=O)[C@H](CC(=O)O)NC(=O)[C@H](Cc3ccc(OCC(=O)O)cc3)NC(=O)[C@H](Cc3ccncc3)NC(=O)CSC[C@@H](C(=O)N[C@@H](CCN)C(N)=O)NC(=O)[C@H](CC(N)=O)NC(=O)[C@H](C(C)(C)O)NC(=O)[C@H](CC3CCCCC3)NC(=O)[C@H](CCN)NC(=O)[C@@H](CC(C)C)NC(=O)[C@H](C)N(C)C(=O)[C@H](Cc3ccc(OCC(=O)O)cc3)NC(=O)[C@H](Cc3ccc(-c4ccccc4)cc3)NC(=O)[C@H](Cc3ccc(OCC(=O)O)cc3)NC2=O)c1` [Compound 2191] ({CH2CO}-[4Pal]Y(Carboxymethyl)D[Phe(3-Me)]Y(Carboxymethyl)[Bip]Y(Carboxymethyl)[NMeA][dL][Dab][Cha][Val(3-OH)]NC[Dab]-NH2; thioether N-14), the half-maximal inhibitory concentration (IC50) came to 0.03 µM.

As to `CCC(C)[C@@H]1NC(=O)[C@H](Cc2ccc(-c3ccccc3)cc2)NC(=O)[C@H](C(C)C)NC(=O)[C@H](Cc2cccc(C)c2)NC(=O)[C@H](CC(=O)O)NC(=O)[C@H](Cc2ccc(OCC(=O)O)cc2)NC(=O)[C@H](C(C)O)NC(=O)CSC[C@@H](C(N)=O)NC(=O)[C@H](C(C)O)NC(=O)[C@H](C(C)C)NC(=O)[C@H](CC2CCCCC2)NC(=O)[C@H](CCN)NC(=O)[C@@H](CC(C)C)NC(=O)[C@H](C)N(C)C1=O` (stereo partly drawn) [Compound 2250] ({CH2CO}-[Thr(3ξ)]Y(Carboxymethyl)D[Phe(3-Me)]V[Bip][Ile(3ξ)][NMeA][dL][Dab][Cha]V[Thr(3ξ)]C-NH2; thioether N-14), the IC50 amounted to 0.02 µM.

Regarding `CSCC[C@H]1NC(=O)[C@H](C)N(C)C(=O)[C@H](CCCNC(=N)N)NC(=O)[C@H](Cc2ccc(-c3ccccc3)cc2)NC(=O)[C@H](C(C)C)NC(=O)[C@H](Cc2c[nH]c3ccccc23)NC(=O)[C@H](CC(=O)O)NC(=O)[C@H](Cc2ccc(O)cc2)NC(=O)[C@H](Cc2ccccc2)NC(=O)CSC[C@@H](C(=O)N[C@@H](C)C(N)=O)NC(=O)[C@H]([C@@H](C)O)NC(=O)[C@H](C(C)C)NC(=O)[C@H](CC(C)C)NC(=O)[C@H](CCCNC(=N)N)NC1=O` [Compound 1062] ({CH2CO}-FYDWV[Bip]R[NMeA][dM]RLVTCA-NH2; thioether N-14), the IC50 stood at 0.15 µM.

With `Cc1cccc(C[C@@H]2NC(=O)[C@H](CC(=O)O)NC(=O)[C@H](Cc3ccc(C(=O)O)cc3)NC(=O)[C@H](Cc3ccc(OCC(=O)O)cc3)NC(=O)CSC[C@@H](C(N)=O)NC(=O)[C@H](CO)NC(=O)[C@H](C(C)C)NC(=O)[C@H](CC3CCCCC3)NC(=O)[C@H](CC(N)=O)NC(=O)[C@@H](CC(C)C)NC(=O)[C@H](C)N(C)C(=O)[C@H](C(C)C)NC(=O)[C@H](Cc3ccc(-c4ccccc4)cc3)NC(=O)[C@H](CC(C)C)NC2=O)c1` [Compound 1681] ({CH2CO}-Y(Carboxymethyl)[Phe(4-COOH)]D[Phe(3-Me)]L[Bip]V[NMeA][dL]N[Cha]VSC-NH2; thioether N-14), the IC50 came out at 0.03 µM.

As for `CC(C)C[C@@H]1NC(=O)[C@H](CCN)NC(=O)[C@@H](CC(C)C)NC(=O)[C@H](C)N(C)C(=O)[C@H](CCCNC(N)=O)NC(=O)[C@H](Cc2ccc(-c3ccccc3)cc2)NC(=O)[C@H](C(C)C)NC(=O)[C@H](Cc2c[nH]c3ccccc23)NC(=O)[C@H](CC(=O)O)NC(=O)[C@H](Cc2ccc(OCC(=O)O)cc2)NC(=O)[C@H](Cc2ccccn2)NC(=O)CSC[C@@H](C(=O)N[C@@H](C)C(N)=O)NC(=O)[C@H]([C@@H](C)O)NC(=O)[C@H](C(C)C)NC1=O` [Compound 1329] ({CH2CO}-[2Pal]Y(Carboxymethyl)DWV[Bip][Cit][NMeA][dL][Dab]LVTCA-NH2; thioether N-14), the IC50 was determined as 0.19 µM.

For `Cc1cccc(C[C@@H]2NC(=O)[C@H](CC(=O)O)NC(=O)[C@H](Cc3ccc(OCC(=O)O)cc3)NC(=O)[C@H](CCN)NC(=O)CSC[C@@H](C(=O)N[C@@H](CO)C(N)=O)NC(=O)[C@H](CO)NC(=O)[C@H](C(C)(C)O)NC(=O)[C@H](CC3CCCCC3)NC(=O)[C@H](CCN)NC(=O)[C@@H](CC(C)C)NC(=O)[C@H](C)N(C)C(=O)[C@H](Cc3ccc(C(=O)O)cc3)NC(=O)[C@H](Cc3ccc(-c4ccccc4)cc3)NC(=O)[C@H](Cc3ccc(C(N)=O)cc3)NC2=O)c1` [Compound 2179] ({CH2CO}-[Dab]Y(Carboxymethyl)D[Phe(3-Me)][Phe(4-CONH2)][Bip][Phe(4-COOH)][NMeA][dL][Dab][Cha][Val(3-OH)]SCS-NH2; thioether N-14), the IC50 worked out at 0.06 µM.

On to `Cc1cccc(C[C@@H]2NC(=O)[C@H](CC(=O)O)NC(=O)[C@H](Cc3ccncc3)NC(=O)[C@H](CN)NC(=O)CSC[C@@H](C(N)=O)NC(=O)[C@H](CO)NC(=O)[C@H](C(C)C)NC(=O)[C@H](CC(C)C)NC(=O)[C@H](CC(N)=O)NC(=O)[C@@H](CC(C)C)NC(=O)[C@H](C)N(C)C(=O)[C@H](C(C)C)NC(=O)[C@H](Cc3ccc(-c4ccccc4)cc3)NC(=O)[C@H](CC(C)C)NC2=O)c1` [Compound 1598] ({CH2CO}-[Dap][4Pal]D[Phe(3-Me)]L[Bip]V[NMeA][dL]NLVSC-NH2; thioether N-14), for which the half-inhibitory concentration (IC50) worked out at 0.01 µM.

Consider `CC(C)C[C@@H]1NC(=O)[C@H](CCCNC(=N)N)NC(=O)[C@@H](Cc2cccnc2)NC(=O)[C@H](C)N(C)C(=O)[C@H](CCCNC(=N)N)NC(=O)[C@H](Cc2ccc(-c3ccccc3)cc2)NC(=O)[C@H](C(C)C)NC(=O)[C@H](Cc2c[nH]c3ccccc23)NC(=O)[C@H](CC(=O)O)NC(=O)[C@H](Cc2ccc(O)cc2)NC(=O)[C@H](Cc2ccccc2)NC(=O)CSC[C@@H](C(=O)N[C@@H](C)C(N)=O)NC(=O)[C@H]([C@@H](C)O)NC(=O)[C@H](C(C)C)NC1=O` [Compound 1104] ({CH2CO}-FYDWV[Bip]R[NMeA][d3Pal]RLVTCA-NH2; thioether N-14), for which the IC50 stood at 0.13 µM.

Regarding `CC(=O)NCCCC[C@@H]1NC(=O)[C@H](C(C)C)NC(=O)[C@H](CC2CCCCC2)NC(=O)[C@H](CCN)NC(=O)[C@@H](CC(C)C)NC(=O)[C@H](C)N(C)C(=O)[C@H](Cc2cnc[nH]2)NC(=O)[C@H](Cc2ccc(-c3ccccc3)cc2)NC(=O)[C@H](C(C)C)NC(=O)[C@H](Cc2cccc(C)c2)NC(=O)[C@H](CC(=O)O)NC(=O)[C@H](Cc2ccc(OCC(=O)O)cc2)NC(=O)[C@H](Cc2ccc(OCC(=O)O)cc2)NC(=O)CSC[C@@H](C(N)=O)NC1=O` [Compound 2262] ({CH2CO}-Y(Carboxymethyl)Y(Carboxymethyl)D[Phe(3-Me)]V[Bip]H[NMeA][dL][Dab][Cha]VK(Ac)C-NH2; thioether N-14), the IC50 came to 0.01 µM.

For the compound `CC(C)C[C@@H]1NC(=O)CSC[C@@H](C(=O)N[C@@H](C)C(N)=O)NC(=O)[C@H](CO)NC(=O)[C@H](C(C)C)NC(=O)[C@H](CC(C)C)NC(=O)[C@H](CCCNC(=N)N)NC(=O)[C@@H](CC(C)C)NC(=O)[C@H](C)N(C)C(=O)[C@H](CCCNC(=N)N)NC(=O)[C@H](Cc2ccc(-c3ccccc3)cc2)NC(=O)[C@H](C(C)C)NC(=O)[C@H](Cc2c[nH]c3ccccc23)NC(=O)[C@H](CC(=O)O)NC(=O)[C@H](Cc2ccc(O)cc2)NC1=O` [Compound 1037] ({CH2CO}-LYDWV[Bip]R[NMeA][dL]RLVSCA-NH2; thioether N-14), the IC50 came out at 0.14 µM.

On to `CC(C)C[C@@H]1NC(=O)[C@H](CCN)NC(=O)[C@@H](CC(C)C)NC(=O)[C@@H]2CCCCN2C(=O)[C@H](CCCNC(N)=O)NC(=O)[C@H](Cc2ccc(-c3ccccc3)cc2)NC(=O)[C@H](C(C)C)NC(=O)[C@H](Cc2c[nH]c3ccccc23)NC(=O)[C@H](CC(=O)O)NC(=O)[C@H](Cc2ccc(O)cc2)NC(=O)[C@H](CC(N)=O)NC(=O)CSC[C@@H](C(=O)N[C@@H](C)C(N)=O)NC(=O)[C@H]([C@@H](C)O)NC(=O)[C@H](C(C)C)NC1=O` [Compound 1382] ({CH2CO}-NYDWV[Bip][Cit][Pip][dL][Dab]LVTCA-NH2; thioether N-14), for which the IC50 worked out at 0.08 µM.

For the compound `CC(C)C[C@@H]1NC(=O)[C@H](CCN)NC(=O)[C@@H](CC(C)C)NC(=O)[C@H](C)N(C)C(=O)[C@H](CCCNC(=N)N)NC(=O)[C@H](Cc2ccc(-c3ccccc3)cc2)NC(=O)[C@H](C(C)C)NC(=O)[C@H](Cc2c[nH]c3ccccc23)NC(=O)[C@H](CC(=O)O)NC(=O)[C@H](Cc2cccc(Cl)c2)NC(=O)[C@H](CN)NC(=O)CSC[C@@H](C(=O)N[C@@H](C)C(N)=O)NC(=O)[C@H]([C@@H](C)O)NC(=O)[C@H](C(C)C)NC1=O` [Compound 1445] ({CH2CO}-[Dap][Phe(3-Cl)]DWV[Bip]R[NMeA][dL][Dab]LVTCA-NH2; thioether N-14), the 50% inhibitory concentration (IC50) was 0.11 µM.

Turning to `CC(C)C[C@@H]1NC(=O)[C@H](CCCNC(=N)N)NC(=O)[C@@H]([C@H](C)O)NC(=O)[C@H](C)N(C)C(=O)[C@H](CCCNC(=N)N)NC(=O)[C@H](Cc2ccc(-c3ccccc3)cc2)NC(=O)[C@H](C(C)C)NC(=O)[C@H](Cc2c[nH]c3ccccc23)NC(=O)[C@H](CC(=O)O)NC(=O)[C@H](Cc2ccc(O)cc2)NC(=O)[C@H](Cc2ccccc2)NC(=O)CSC[C@@H](C(=O)N[C@@H](C)C(N)=O)NC(=O)[C@H]([C@@H](C)O)NC(=O)[C@H](C(C)C)NC1=O` [Compound 1058] ({CH2CO}-FYDWV[Bip]R[NMeA][dT]RLVTCA-NH2; thioether N-14), the IC50 is 0.91 µM.
